Data published in ChEMBL document CHEMBL1909046, “DrugMatrix in vitro pharmacology data”.

Columns and labels:
[1] = DRUGMATRIX: GABAA, Muscimol, Central radioligand binding (ligand: [3H] Muscimol); format: cell membranes, Rattus norvegicus, Wistar, Brain, Membrane; settings: Not Active = under 50% inhibition at 10 µM
Melanocortin receptor 5 = Melanocortin receptor 5 (Homo sapiens, UniProt P33032); format: cell membranes, HEK293, Membrane; settings: hek293; further: in other assays of this panel Not Active means under 50% inhibition at 10 µM
Sequence of Melanocortin receptor 5 (P33032 whole entry): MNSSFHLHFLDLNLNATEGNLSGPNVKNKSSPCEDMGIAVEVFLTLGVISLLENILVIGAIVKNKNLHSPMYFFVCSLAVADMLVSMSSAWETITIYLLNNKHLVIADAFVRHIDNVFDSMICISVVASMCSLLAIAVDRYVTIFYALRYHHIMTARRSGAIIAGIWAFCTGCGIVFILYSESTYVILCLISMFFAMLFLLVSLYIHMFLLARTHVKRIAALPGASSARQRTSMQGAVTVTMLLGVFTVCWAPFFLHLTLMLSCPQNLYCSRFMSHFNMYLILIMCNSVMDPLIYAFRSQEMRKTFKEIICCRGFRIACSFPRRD

[2] = biological target: Platelet-activating factor receptor (Homo sapiens, UniProt P25105); format: tissue-based; further: in other assays of this panel Not Active means under 50% inhibition at 10 µM
Sequence of Platelet-activating factor receptor (P25105 whole entry): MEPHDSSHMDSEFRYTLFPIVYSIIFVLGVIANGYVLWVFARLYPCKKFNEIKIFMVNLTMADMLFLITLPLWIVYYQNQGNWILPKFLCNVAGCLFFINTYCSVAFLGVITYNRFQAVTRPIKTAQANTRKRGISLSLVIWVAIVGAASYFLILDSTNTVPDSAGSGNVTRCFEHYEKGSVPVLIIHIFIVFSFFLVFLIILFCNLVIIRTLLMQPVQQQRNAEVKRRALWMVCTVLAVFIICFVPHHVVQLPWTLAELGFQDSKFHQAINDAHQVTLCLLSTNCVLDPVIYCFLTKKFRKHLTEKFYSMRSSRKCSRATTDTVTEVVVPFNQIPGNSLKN

[3] = biological target: Voltage-gated inwardly rectifying potassium channel KCNH2 (Homo sapiens, UniProt Q12809); settings: hek293; further: in other assays of this panel Not Active means under 50% inhibition at 10 µM
Sequence of Voltage-gated inwardly rectifying potassium channel KCNH2 (Q12809 whole entry): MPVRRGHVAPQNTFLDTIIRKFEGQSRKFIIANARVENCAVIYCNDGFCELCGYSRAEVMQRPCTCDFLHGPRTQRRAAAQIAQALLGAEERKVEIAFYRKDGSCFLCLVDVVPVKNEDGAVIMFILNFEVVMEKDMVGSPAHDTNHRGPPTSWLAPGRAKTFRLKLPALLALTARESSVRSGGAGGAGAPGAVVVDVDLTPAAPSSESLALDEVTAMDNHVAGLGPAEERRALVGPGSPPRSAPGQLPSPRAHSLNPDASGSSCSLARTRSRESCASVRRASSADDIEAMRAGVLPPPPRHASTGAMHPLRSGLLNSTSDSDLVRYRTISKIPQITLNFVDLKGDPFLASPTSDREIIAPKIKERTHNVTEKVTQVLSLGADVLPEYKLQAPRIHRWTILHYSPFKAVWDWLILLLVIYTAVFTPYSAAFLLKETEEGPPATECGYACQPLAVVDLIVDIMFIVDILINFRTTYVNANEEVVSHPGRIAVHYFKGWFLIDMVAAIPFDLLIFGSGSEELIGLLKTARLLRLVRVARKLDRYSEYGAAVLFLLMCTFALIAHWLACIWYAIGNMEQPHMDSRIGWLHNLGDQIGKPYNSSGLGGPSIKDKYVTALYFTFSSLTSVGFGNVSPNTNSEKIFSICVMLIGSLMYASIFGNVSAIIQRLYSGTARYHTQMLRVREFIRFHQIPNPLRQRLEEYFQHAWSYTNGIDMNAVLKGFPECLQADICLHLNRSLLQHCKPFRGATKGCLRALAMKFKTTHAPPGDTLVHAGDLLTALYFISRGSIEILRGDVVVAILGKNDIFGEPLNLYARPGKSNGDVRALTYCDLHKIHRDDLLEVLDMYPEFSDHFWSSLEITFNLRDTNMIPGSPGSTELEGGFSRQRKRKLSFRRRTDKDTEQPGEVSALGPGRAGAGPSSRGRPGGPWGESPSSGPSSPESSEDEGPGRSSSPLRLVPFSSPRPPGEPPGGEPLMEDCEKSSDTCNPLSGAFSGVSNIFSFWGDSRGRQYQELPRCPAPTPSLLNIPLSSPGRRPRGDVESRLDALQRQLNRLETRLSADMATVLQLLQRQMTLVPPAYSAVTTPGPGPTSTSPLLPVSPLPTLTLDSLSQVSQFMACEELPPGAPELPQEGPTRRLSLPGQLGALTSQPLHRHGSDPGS

Progesterone receptor = biological target: T1, Progesterone receptor (Bos taurus, UniProt Q690N0); experiment: DRUGMATRIX: Progesterone radioligand binding (ligand: [3H] R-5020); format: tissue-based, Uterus; settings: Not Active = under 50% inhibition at 10 µM
T1 sequence (Q690N0 whole entry): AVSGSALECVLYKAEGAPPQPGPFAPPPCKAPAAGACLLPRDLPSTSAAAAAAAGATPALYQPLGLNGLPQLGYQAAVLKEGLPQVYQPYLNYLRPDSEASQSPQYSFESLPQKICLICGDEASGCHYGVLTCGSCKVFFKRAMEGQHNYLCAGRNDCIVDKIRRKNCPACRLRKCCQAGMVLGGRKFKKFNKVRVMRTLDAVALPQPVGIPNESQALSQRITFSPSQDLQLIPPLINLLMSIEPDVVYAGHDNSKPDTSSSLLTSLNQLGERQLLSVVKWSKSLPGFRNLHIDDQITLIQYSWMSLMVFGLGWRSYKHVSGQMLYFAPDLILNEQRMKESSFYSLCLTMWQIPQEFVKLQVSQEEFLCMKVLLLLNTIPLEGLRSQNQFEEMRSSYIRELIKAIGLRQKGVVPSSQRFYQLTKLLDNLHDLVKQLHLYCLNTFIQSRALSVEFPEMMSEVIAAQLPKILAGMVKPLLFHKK

[4] = biological target: T2, Alpha-1A adrenergic receptor (Rattus norvegicus, UniProt P43140); experiment: DRUGMATRIX: Alpha-1A adrenergic receptor radioligand binding (ligand: prazosin); format: cell membranes, Wistar, Submaxillary gland, Membrane; settings: Not Active = under 50% inhibition at 10 µM
T2 sequence (P43140 whole entry): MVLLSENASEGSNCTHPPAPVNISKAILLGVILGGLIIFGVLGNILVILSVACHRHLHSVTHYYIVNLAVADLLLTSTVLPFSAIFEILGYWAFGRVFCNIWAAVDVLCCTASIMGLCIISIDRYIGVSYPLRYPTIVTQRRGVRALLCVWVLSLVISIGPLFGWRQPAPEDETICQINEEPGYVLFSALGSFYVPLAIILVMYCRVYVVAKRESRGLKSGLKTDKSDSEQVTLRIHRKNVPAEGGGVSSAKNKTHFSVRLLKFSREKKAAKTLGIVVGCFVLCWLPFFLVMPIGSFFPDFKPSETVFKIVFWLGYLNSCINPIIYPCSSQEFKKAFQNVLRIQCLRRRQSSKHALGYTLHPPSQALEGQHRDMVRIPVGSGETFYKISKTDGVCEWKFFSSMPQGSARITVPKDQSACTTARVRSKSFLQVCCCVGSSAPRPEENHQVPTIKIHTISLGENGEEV

[5] = biological target: cGMP-specific 3',5'-cyclic phosphodiesterase (Homo sapiens, UniProt O76074); experiment: DRUGMATRIX: Phosphodiesterase PDE5 enzyme inhibition (substrate: [3H]cGMP + cGMP); format: tissue-based, Platelet; settings: platelet; Not Active = under 50% inhibition at 10 µM
[6] = DRUGMATRIX: Glutamate, NMDA, Agonism radioligand binding (ligand: [3H] CGP-39653); format: cell membranes, Rattus norvegicus, Wistar, Cerebral cortex, Membrane; settings: Not Active = under 50% inhibition at 10 µM

O=C1c2ccccc2C(=O)C1c1ccccc1 [PHENINDIONE]
Not Active: IC50 [1] | Ki [1] | IC50 (Melanocortin receptor 5) | IC50 [2] | IC50 [3] | Ki [3] | IC50 (Progesterone receptor) | IC50 [4] | IC50 [5] | IC50 [6] | Ki [6]

O=C(NCCN1CCOCC1)c1ccc(Cl)cc1 [MOCLOBEMIDE]
Not Active: IC50 [1] | Ki [1] | IC50 (Melanocortin receptor 5) | IC50 [2] | IC50 [3] | Ki [3] | IC50 (Progesterone receptor) | IC50 [4] | IC50 [5] | IC50 [6] | Ki [6]

O=C(O)COC(=O)Cc1ccccc1Nc1c(Cl)cccc1Cl [ACECLOFENAC]
Not Active: IC50 [1] | Ki [1] | IC50 (Melanocortin receptor 5) | IC50 [2] | IC50 [3] | Ki [3] | IC50 (Progesterone receptor) | IC50 [4] | IC50 [5] | IC50 [6] | Ki [6]

COc1cc(/C=C/C(=O)O)ccc1O [FERULATE]
Not Active: IC50 [1] | Ki [1] | IC50 (Melanocortin receptor 5) | IC50 [2] | IC50 [3] | Ki [3] | IC50 (Progesterone receptor) | IC50 [4] | IC50 [5] | IC50 [6] | Ki [6]

O=c1[nH]c2ccccc2c2ccccc12
Not Active: IC50 [1] | Ki [1] | IC50 (Melanocortin receptor 5) | IC50 [2] | IC50 [3] | Ki [3] | IC50 (Progesterone receptor) | IC50 [4] | IC50 [5] | IC50 [6] | Ki [6]

COc1ccc(C[C@H](N)C(=O)N[C@H]2[C@@H](O)[C@H](n3cnc4c(N(C)C)ncnc43)O[C@@H]2CO)cc1 [PUROMYCIN]
Not Active: IC50 [1] | Ki [1] | IC50 (Melanocortin receptor 5) | IC50 [2] | IC50 [3] | Ki [3] | IC50 (Progesterone receptor) | IC50 [4] | IC50 [5] | IC50 [6] | Ki [6]

NC(=O)NC(=O)Cc1ccccc1 [PHENACEMIDE]
Not Active: IC50 [1] | Ki [1] | IC50 (Melanocortin receptor 5) | IC50 [2] | IC50 [3] | Ki [3] | IC50 (Progesterone receptor) | IC50 [4] | IC50 [5] | IC50 [6] | Ki [6]

CC(N)Cc1c[nH]c2ccc(OCc3cccs3)cc12 (stereo not given) [BW-723C86]
Not Active: IC50 [1] | Ki [1] | IC50 (Melanocortin receptor 5) | IC50 [2] | IC50 [3] | Ki [3] | IC50 (Progesterone receptor) | IC50 [4] | IC50 [5] | IC50 [6] | Ki [6]

c1ccc2c(c1)Nc1ccccc1S2 [PHENOTHIAZINE]
Not Active: IC50 [1] | Ki [1] | IC50 (Melanocortin receptor 5) | IC50 [2] | IC50 [3] | Ki [3] | IC50 (Progesterone receptor) | IC50 [4] | IC50 [5] | IC50 [6] | Ki [6]

POVIDONE
Not Active: IC50 [1] | Ki [1] | IC50 (Melanocortin receptor 5) | Ki (Melanocortin receptor 5) | IC50 [2] | Ki [2] | IC50 [3] | Ki [3] | IC50 (Progesterone receptor) | Ki (Progesterone receptor) | IC50 [4] | Ki [4] | IC50 [5] | Ki [5] | IC50 [6] | Ki [6]

CCO [ALCOHOL]
Not Active: IC50 [1] | Ki [1] | IC50 (Melanocortin receptor 5) | IC50 [2] | IC50 [3] | Ki [3] | IC50 (Progesterone receptor) | IC50 [4] | IC50 [5] | IC50 [6] | Ki [6]

Clc1cc(Cl)c(OCC#CI)cc1Cl [HALOPROGIN]
Not Active: IC50 [1] | Ki [1] | IC50 (Melanocortin receptor 5) | IC50 [2] | IC50 [3] | Ki [3] | IC50 (Progesterone receptor) | IC50 [4] | IC50 [5] | IC50 [6] | Ki [6]

CHROMIC CHLORIDE
Not Active: IC50 [1] | Ki [1] | IC50 (Melanocortin receptor 5) | Ki (Melanocortin receptor 5) | IC50 [2] | Ki [2] | IC50 [3] | Ki [3] | IC50 (Progesterone receptor) | Ki (Progesterone receptor) | IC50 [4] | Ki [4] | IC50 [5] | Ki [5] | IC50 [6] | Ki [6]

Nc1ccc(Cc2ccc(N)cc2)cc1
Not Active: IC50 [1] | Ki [1] | IC50 (Melanocortin receptor 5) | IC50 [2] | IC50 [3] | Ki [3] | IC50 (Progesterone receptor) | IC50 [4] | IC50 [5] | IC50 [6] | Ki [6]

COc1cc([C@@H]2c3cc4c(cc3[C@H](O)[C@H]3COC(=O)[C@H]23)OCO4)cc(OC)c1OC [PODOFILOX]
Not Active: IC50 [1] | Ki [1] | IC50 (Melanocortin receptor 5) | IC50 [2] | IC50 [3] | Ki [3] | IC50 (Progesterone receptor) | IC50 [4] | IC50 [5] | IC50 [6] | Ki [6]
